Results reported in publication PMC9965614, “Computer-Aided Virtual Screening and In Vitro Validation of Biomimetic Tyrosinase Inhibitory Peptides from Abalone Peptidome” (International Journal of Molecular Sciences, 2023).
Where a SMILES comes first, the peptide text is derived from it.

Columns and labels:
cellular tyrosinase = target: T1, cellular tyrosinase (Mus musculus, UniProt P11344); experiment: Intracellular (cellular) tyrosinase activity assay in UV-induced B16F10 cells; format: cell-based, murine; details: 70 μM peptide, UVA/UVB-induced B16F10 cells, triplicate
T1 construct: the harvested cells were lysed in cell extraction buffer; endogenous in cells; host or cells: B16F10 murine melanoma cells, UVA/UVB-induced
T1 sequence (P11344 19-533): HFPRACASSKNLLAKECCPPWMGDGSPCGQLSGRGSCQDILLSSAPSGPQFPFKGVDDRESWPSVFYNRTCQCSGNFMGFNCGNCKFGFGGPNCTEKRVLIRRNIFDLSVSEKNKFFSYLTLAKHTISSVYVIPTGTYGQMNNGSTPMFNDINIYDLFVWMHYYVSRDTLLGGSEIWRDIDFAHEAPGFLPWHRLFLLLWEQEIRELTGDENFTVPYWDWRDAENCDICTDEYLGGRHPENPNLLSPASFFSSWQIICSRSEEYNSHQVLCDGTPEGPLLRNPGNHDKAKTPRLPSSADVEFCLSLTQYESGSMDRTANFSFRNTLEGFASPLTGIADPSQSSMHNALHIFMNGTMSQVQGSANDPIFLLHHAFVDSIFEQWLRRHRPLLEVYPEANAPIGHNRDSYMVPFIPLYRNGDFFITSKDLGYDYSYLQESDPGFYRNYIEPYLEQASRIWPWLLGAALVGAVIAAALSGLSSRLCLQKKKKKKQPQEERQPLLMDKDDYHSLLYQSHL
Description: Tyrosinase activity was measured based on Dopa oxidase activity by estimating the dopachrome production according to the method by Qiao et al., 2012 [54], with some modifications. B16F10 cells were seeded at 5 × 10^6 cells/mL in 24-well plates. […] Each well was then washed and replaced with PBS 600 μL and induced with UVA (314-400 nm, 3.0 W) and UVB (280-315 nm, 13.6 W) using OSRAM (Ultra-Vitalux, Germany) for 22 s (0.32 J/cm^2). After that, the cells were incubated with medium 600 μL/well for a further 24 h. Then, the cells were trypsinized and the harvested cells were lysed in cell extraction buffer. After normalized protein concentration, 10 μL of each lysate supernatant was aliquoted into a 96-well plate and shaking incubated in dark conditions with 1 mM L-DOPA 90 μL in PBS at 37 °C at 280 rpm for 10 min. The absorbance was measured at 475 nm and all experiments were performed in triplicate to determine the IC50 of the samples. The cellular tyrosinase inhibitory activity was calculated with the following equation: % Cellular tyrosinase inhibition=[(C)-(S)/(C)]×100, where, C are defined as in the previous section.

mushroom tyrosinase = mushroom tyrosinase (Agaricus bisporus, UniProt C7FF04); experiment: Mushroom tyrosinase activity assay (L-DOPA oxidation, diphenolase); format: biochemical; details: L-DOPA substrate, up to 500 μM
Chain of mushroom tyrosinase (C7FF04 1-392): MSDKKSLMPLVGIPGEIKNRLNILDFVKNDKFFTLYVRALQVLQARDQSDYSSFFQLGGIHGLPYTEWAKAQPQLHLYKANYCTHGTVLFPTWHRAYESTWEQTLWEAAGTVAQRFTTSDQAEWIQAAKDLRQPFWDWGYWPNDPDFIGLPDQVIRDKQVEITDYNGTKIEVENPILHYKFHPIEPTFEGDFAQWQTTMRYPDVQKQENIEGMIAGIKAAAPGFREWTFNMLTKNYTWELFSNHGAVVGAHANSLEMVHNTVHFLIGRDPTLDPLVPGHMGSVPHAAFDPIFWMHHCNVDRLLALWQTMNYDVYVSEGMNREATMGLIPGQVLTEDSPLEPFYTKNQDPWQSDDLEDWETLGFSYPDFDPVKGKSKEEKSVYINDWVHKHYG
Chain of mushroom tyrosinase (G1K3P4 1-150 partner): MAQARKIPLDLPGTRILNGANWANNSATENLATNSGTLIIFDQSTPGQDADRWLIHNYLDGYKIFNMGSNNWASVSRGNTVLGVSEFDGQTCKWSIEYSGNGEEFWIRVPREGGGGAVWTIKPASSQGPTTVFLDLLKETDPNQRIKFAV
Description: The inhibitory effect on mushroom tyrosinase was determined spectrophotometrically via L-DOPA oxidation. The reaction mixture consisted of 20 μL of hdTIPs, 140 μL of 100 mM sodium phosphate buffer (pH6.8) and 40 μL of 200 units/mL mushroom tyrosinase (EC 1.14.18.1; Sigma, Saint Louis, USA) placed in a 96-well microplate, then incubated for 10 min. After that, 20 μL of 5mM L-DOPA were mixed into each well over 20 min. Furthermore, the amount of dopachrome produced absorbance was measured at 475 nm. In addition, KA was used as the positive control at the same concentrations and conditions to hdTIPs. This method was modified from Kim et al..
The mushroom tyrosinase inhibitory activity was calculated with the following equation: % Mushroom tyrosinase inhibition=[(C)−(S)/(C)]×100, where, C represents the OD475 of control and S is the OD475 of sample. All experiments were performed in triplicate to determine the IC50 of the samples.

[1] = test system: glutathione peroxidase (GPx); experiment: Antioxidative enzyme activity, glutathione peroxidase (assay kit); format: cell-based, murine; details: 70 μM, UV-exposed B16F10 cells
Description: (§1) To determine the antioxidant activity, the centrifugation precipitate from Section 4.6 was dissolved in 1 mL of 1 M NaOH containing 10% DMSO at 80 °C for 1 h. Various assay kits, all from Beijing Solarbio Science & Technology Co., Ltd., Beijing, China, were used to measure the quantity of reduced reactive oxygen species (ROS) and the activity of superoxide dismutase (SOD), catalase (CAT), and glutathione peroxidase (GPx) according to the methods by Hu et al..

tyrosinase [2] = details: KNN machine learning model, 425 sequence features; cited from earlier work
Description: (§2) Table 1 Abalone predicted TIPs by KNN and RF-based predictors and the predicted antioxidant scores by AnOxPePred 1.0 program. | column: Predicted Anti-Tyrosinase Probability / KNN Predictor || Previously, our research team proposed the in-house machine learning-based anti-tyrosinase prediction tool, which provides thousands of potential peptides. The probability scores of all 1079 peptides from KNN-based and RF-based models can be found in the supplementary file of the previous article by Kongsompong et al.. The KNN and RF predictors were trained and tested against 133 peptides with known anti-tyrosinase properties with 97% and 99% accuracy. The predictions of both models were based on the numeric matrix of 425 features calculated from amino acid composition (20 featur ...

tyrosinase [3] = details: RF machine learning model, 425 sequence features; cited from earlier work
Description: as §2, with “/ RF” for “/ KNN”

[4] = test system: superoxide dismutase (SOD); experiment: Antioxidative enzyme activity, superoxide dismutase (assay kit); format: cell-based, murine; details: 70 μM, UV-exposed B16F10 cells
Description: as §1

B16F10 melanoma cells = experiment: Melanin content assay in UV-induced B16F10 cells; format: cell-based, murine; details: 70 μM peptide, UVA/UVB-induced B16F10 cells, triplicate
Description: Cellular melanin content was measured using a modified method by Jegal, et al.. B16F10 cells were seeded at 5 × 10^5 cells/mL in 24-well plates. […] After that, the cells in each well were washed and replaced by PBS. The UV stimulation process was performed by the exposure to UVA (314-400 nm, 3.0 W) and UVB (280-315 nm, 13.6 W) for 22 s. Then, PBS was replaced with media and further incubated for 24 h. The UV-stimulated cells were then trypsinized and centrifuged at 1500 rpm for 5 min. The cell pellet was then dissolved in 2 M NaOH at 60 °C for 1 h to solubilize the melanin. The melanin content was estimated by measuring the absorbance at 405 nm. The melanin content was calculated with the following equation: % Melanin content=(S)/(C)×100, where, S is the OD405 of sample and C represents the OD405 of control. All experiments were performed in triplicate.

Question: With `CSCC[C@H](NC(=O)[C@H](CCC(N)=O)NC(=O)[C@H](CO)NC(=O)[C@@H](N)[C@@H](C)O)C(=O)N[C@@H](CO)C(=O)N[C@@H](CCCNC(=N)N)C(=O)N[C@@H](CO)C(=O)N[C@@H](CO)C(=O)N[C@@H](CO)C(=O)N[C@@H](CCCNC(=N)N)C(=O)O` [KNN2] (H-TSQMSRSSSR-OH; N-terminus and C-terminus assumed) as the molecule, how does the “inhibition of cellular tyrosinase” value (cellular tyrosinase) read?
Answer: The value was “fourth-most-effective inhibitor”.

Question: What about the “inhibitory effect on mushroom tyrosinase (diphenolase activity)” value (mushroom tyrosinase) of the same molecule?
Answer: The value was “did not show any inhibition”.

Question: And the “effect on GPx activity” value [1]?
Answer: Its value is “elevated”.

Question: And the “Predicted Anti-Tyrosinase Probability KNN Predictor” value (tyrosinase [2])?
Answer: The value was 1.00.

Question: What about the “Predicted Anti-Tyrosinase Probability RF Predictor” value (tyrosinase [3]) of the same molecule?
Answer: Its value is 0.37.

Question: And the “effect on SOD activity” value [4]?
Answer: The value was “elevated”.

Question: What about the “inhibition of melanin content” value (B16F10 melanoma cells) of the same molecule?
Answer: Its value is “fourth-most-effective inhibitor”.
